Ends that are not written are not given here.
Tested on: SW13 cells
Assay: growth of SW13 cells in soft agar (colony formation, Halper et al. 1983, modified)
Format: cell-based, human
Conditions: qualitative; whether the substance stimulates or mimics the growth response
Experimental: By the term 'anchorage independent growth of SW13 cells in soft agar in an autocrine fashion' is meant that the anchorage independent growth of the SW13 cells in soft agar is stimulated by a growth factor produced by the SW13 cells. Such 'anchorage independent growth of SW13 cells in soft agar is measured by the method described by Halper et al., Cancer Research, 43, 1972-1979 (1983). Preferably such method is modified so that the base and upper layers contain 0.5% and 0.3% agarose, respectively in DMEM, 10% fetal bovine serum, and 5000 cells are plated per 3 cm dish.
h-TGFe activity was measured using growth of SW13 cells in soft agar as described by Halper et al., Cancer Research, 43, 1972-1979 (1983), except that the base and upper layers contained 0.5% and 0.3% agarose, respectively in DMEM, 10% fetal bovine serum, and 5000 cells were plated per 3 cm dish.
Human milk was delipidated by ether extraction and acidified with TFA (0.5% final concentration). The acidified material was filtered through a 0.45 µm membrane and concentrated 5-fold using an Amicon YM5 membrane. The concentrate was dialyzed against 0.05% TFA, lyophilized, reconstituted at 10 times the original concentration and bioassayed on SW13 cells.
Samples of colon carcinoma tissue from patients along with two specimens of normal adjacent colon were obtained at surgery and snap frozen in liquid nitrogen. […]

Substance | colony formation by SW13 cells in the soft agar assay
bombesin | not mimicked
gastrin: Synthetic human gastrin obtained from Sigma (QGPWLEEEEEAYGWMDF; ends and bridges not checked; UniProt P01350 76-92, looked up) | not mimicked
